Test [1] can be described thus: Mouse Tail-flick test (analgesic activity). Type of test: in vivo, mouse (male Charles River mice). The conditions noted are these: for % Protection (percent number of mice doubling the initial reaction time): 1 mg Kg^-1, 30 min after dosing. Background: In hot-plate and tail-flick tests a longer latency is read as antinociception.
The target in test [2] is T1, K (Kappa) opioid receptor (K sites) (Cavia porcellus, UniProt P41144).
T1 construct: performed on fresh guinea pig brain homogenate; from tissue; host or cells: guinea pig whole brain without cerebellum, homogenate
Kind of test: Opiate receptor binding to K sites (tritiated Ethylketocyclazocine). Details: species or system guinea pig. The method, then: (§1) Radio receptor binding to μ and k sites is performed on fresh guinea pig brain homogenate prepared according to Kosterlitz. (1981).
(§2) Whole brain without cerebellum is homogenized in 50 mM, Tris-buffer (pH 7.4 at 0° C.) and centrifuged at 49,000×g×10 min. The pellet is then resuspended in the same buffer, incubated at 37° C. for 45 min. and centrifuged again.
(§3) 1.9 ml of the final homogenate (1:100 in Tris-pH 7.4, 0° C.) is used for the binding assay.
Binding to K sites (Magnan J., 1982)
The binding of tritiated Ethylketocyclazocine to brain homogenate is measured in the presence of 100 nanomolar D-Ala-D-LeuEnkephalin (DADLE) and 100 nanomolar DAGO, added to saturate the δ and μ opioid receptors respectively.
Final homogenate with solutions of the cold ligand and of the labelled ligand is incubated for 40 min at 25° C., filtered through Whatman GF/C glass filter discs and washed.
The radioactivity bound to the filters is counted by liquid scintillation spectrophotometry.
MR 2266,500 nM is utilized to determine the saturable binding.
(§4) For the calculation of the kinetic parameters of the binding of labelled and unlabelled ligands, the equilibrium dissociation constant (KD), and the inhibition constant (Ki) and the maximum number of binding sites (B max) are determined from saturation curves and competition experiments (Hill 1910; Scatchard 1949; Cheng and Prusoff 1973; Gillan et al. 1980).
(§5) A concentration of radioligand near KD is used in the binding assays evaluating our compounds.

Test [3] deals with T2, μ opioid receptor (μ sites) (Cavia porcellus, UniProt A0ACM8Q262).
T2 construct: 3H-DAGO displacement
Kind of test: Opiate receptor binding to μ sites (3H-DAGO). Here is the method: as §1, §2, §3
Binding to μ sites (Magnan J., 1982)
^3 H [D-Ala^2, MePhe^4, Gly-ol^5 ] Enkephalin (^3 H-DAGO), an enkephalin analogue that binds selectively to μ-receptors, is added to the biological substrate and incubated at 25° C. for 40 min., filtered through Whatman GF-C and washed with ice-cold Tris-buffer.
The filters are then dried, solubilized in Filtercount and the radioactivity monitored. Non specific binding is determined in the presence of 10^-6 M Naloxone.
as §4, §5

The mark [4] stands for this setting: sc, 0.5 h, subcutaneous, read-out: ED50 subcutaneous.
Setting [5] is: guinea pig brain homogenate, tritiated Ethylketocyclazocine with 100 nM DADLE and 100 nM DAGO, 25° C., 40 min, read-out: Ki, opiate receptor binding, K.
Setting [6] is: guinea pig brain homogenate, 25° C., 40 min, read-out: Ki, opiate receptor binding, μ.

Counter-ions that a name gives are not always drawn. Like-named read-outs stand apart in the source and are kept apart here.

T1 sequence (P41144 whole entry): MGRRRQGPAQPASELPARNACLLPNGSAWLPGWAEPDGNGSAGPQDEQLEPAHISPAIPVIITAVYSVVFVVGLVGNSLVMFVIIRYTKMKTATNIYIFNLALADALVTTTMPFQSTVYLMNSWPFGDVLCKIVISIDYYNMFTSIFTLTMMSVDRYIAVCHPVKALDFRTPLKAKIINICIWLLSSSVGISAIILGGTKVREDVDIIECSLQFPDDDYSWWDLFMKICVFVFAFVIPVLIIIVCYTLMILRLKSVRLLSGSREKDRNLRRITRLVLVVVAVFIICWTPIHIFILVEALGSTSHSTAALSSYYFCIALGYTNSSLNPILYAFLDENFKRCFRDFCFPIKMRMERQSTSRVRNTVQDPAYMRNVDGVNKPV
T2 sequence (A0ACM8Q262 1-400): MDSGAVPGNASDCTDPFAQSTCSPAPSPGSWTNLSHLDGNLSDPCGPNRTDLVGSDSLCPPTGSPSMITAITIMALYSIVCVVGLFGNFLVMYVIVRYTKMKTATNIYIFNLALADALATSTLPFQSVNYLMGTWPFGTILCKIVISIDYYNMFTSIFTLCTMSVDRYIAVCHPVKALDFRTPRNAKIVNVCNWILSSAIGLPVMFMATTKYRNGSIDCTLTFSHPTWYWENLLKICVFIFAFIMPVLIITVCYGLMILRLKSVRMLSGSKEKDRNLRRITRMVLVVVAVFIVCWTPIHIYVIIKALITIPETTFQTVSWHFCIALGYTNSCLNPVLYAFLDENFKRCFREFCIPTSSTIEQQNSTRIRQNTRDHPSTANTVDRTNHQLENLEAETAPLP

`O=C(Cc1ccc(Br)cc1)N1CCCCC1CN1CCCC1` (racemic) [Example 6, (2R,S)-1-(4-bromophenylacetyl)-2-(1-pyrrolidinylmethyl)piperidine hydrochloride]: the ED50 (as a rule, the midpoint of the dose-response relation) was found to be 4.12 mg/kg in test [1] (oral (os), read-out: ED50 oral) and 0.52 mg/kg in test [1] (setting [4]). Further, the “% Protection (percent number of mice doubling the initial reaction time)” value in test [1] (subcutaneous) came out at 80%. Also, the Ki – broadly, the equilibrium dissociation constant of an inhibitor or competing ligand from its target – in test [2] (setting [5]) worked out at 6.61 nM; in test [3] (setting [6]), 3130 nM.
`O=C(Cc1ccc(C(F)(F)F)cc1)N1CCCC[C@H]1CN1CCCC1` [Example 3, (2S)-1-(4-trifluoromethylphenylacetyl)-2-(1-pyrrolidinylmethyl) piperidine hydrochloride sesquihydrate]: the ED50 came to 0.67 mg/kg in test [1] (oral (os), read-out: ED50 oral) and 0.14 mg/kg in test [1] (setting [4]). In addition, the Ki in test [2] was found to be 4.05 nM; in test [3] (read-out: Ki, opiate receptor binding, μ, guinea pig brain homogenate, 25° C., 40 min), 2540 nM.
For the molecule `O=C(Cc1ccc(C(F)(F)F)cc1)N1CCCCC1CN1CCCC1` (racemic) [Example 5, (2R,S)-1-(4-trifluoronethylphenylacetyl)-2-(1pyrrolidinylmethyl)piperidine hydrochloride], the median effective dose (ED50) in test [1] (oral (os), read-out: ED50 oral) stood at 1.08 mg/kg; in test [1] (setting [4]), 0.23 mg/kg. The “% Protection (percent number of mice doubling the initial reaction time)” value in test [1] (subcutaneous) was 100%. The Ki was determined as 3.59 nM in test [2] (setting [5]) and 3090 nM in test [3] (setting [6]).
On the same counts, the results for `O=C(Cc1ccc([N+](=O)[O-])cc1)N1CCCCC1CN1CCCC1` (racemic) [Example 4, (2R,S)-1-(4-nitrophenylacetyl)-2-(1-pyrrolidinylmethyl)piperidine hydrochloride] are 5.45 mg/kg, 0.55 mg/kg, 80%, 37.9 nM and 12800 nM.
As for `O=C(Cc1cccc(C(F)(F)F)c1)N1CCCCC1CN1CCCC1` (racemic) [Example 2, (2R,S)-1-(3-trifluoromethylphenylacetyl)-2-(1-pyrrolidinylmethyl)piperidinehydrochloride hemihydrate], the 50% effective dose (ED50) in test [1] (oral (os), read-out: ED50 oral) was 4.61 mg/kg; in test [1] (setting [4]) it was 0.43 mg/kg. Also, the results for the Ki in test [2] (setting [5]) and in test [3] (setting [6]) were 3.07 nM and > 10000 nM, respectively.
With `O=C(Cc1cccc([N+](=O)[O-])c1)N1CCCCC1CN1CCCC1` (racemic) [Example 1, (2R,S)-1-(3-nitrophenylacetyl)-2-(1-Pyrrolidinylmethyl) piperidine hydrochloride], the ED50 in test [1] (setting [4]) came out at 0.97 mg/kg. Besides, the Ki in test [2] (setting [5]) is 5.96 nM; in test [3] (setting [6]), > 10000 nM.

The record behind these values is patent US4826819A, “Piperidine analgesics” (priority 1986, dated 1989).
